Experimental data published in patent US20100298285A1, “Biclycloheteroaryl Compounds as P2x7 Modulators and Uses Thereof” (priority 2006, published 2010).

system: IL-1β release, THP-1 cells; assay: IL-1β release assay in differentiated THP-1 cells stimulated with BzATP (Example 9); assay type: cell-based; details: Homo sapiens; 0.1 μM compound ("*" symbols); differentiated THP-1 cells, 250 uM BzATP; read-out: IL-1β% Inhib. @ 0.3 or 0.1 μM
Experimental: THP-1 cells (ATCC Cat # 285-IF-100) are plated in 96 well plates at a concentration of 200,000 cells per well and allowed to differentiate in RPMI-1640 media (ATCC Cat # 30-2001) containing 10% FBS, 100 IU/mL penicillin, 100 ug/mL streptomycin, 100 ng/mL LPS and 100 ng/mL IFN-γ for 16 hours. Following differentiation, the cells are treated for an additional 2 hours in RPMI-1640 media containing 100 IU/mL penicillin, 100 ug/mL streptomycin and fresh LPS at 100 ng/mL. The cells are then pretreated for 30 minutes with the compound of interest at the appropriate concentration in RPMI media containing 100 IU/mL penicillin, 100 ug/mL streptomycin. Following the pretreatment 2′,3′-O-(4-benzoylbenzoyl)-adenosine 5′-triphosphate (Sigma Aldrich Cat # B6396) is added to a final concentration of 250 uM and the cells are incubated for an additional 45 minutes. 30 uL of cell supernatant is then collected and IL-1β levels determined via ELISA (R&D systems Cat. # HSLB50) according to manufacturer's recommendations using the Tecan Safire plate reader. Background adjusted IL-1β levels of drug treated and non-treated cells are used to calculate the percent inhibition.
The following compounds have been or can be prepared according to the synthetic methods described above. For the purpose of Table 1 below, activity of each compound, which can be determined using the IL-1β assay method described in Example 9, is expressed as follows: […]
The compounds set forth in Table 1 were tested for activity in a cellular model as described herein. Specifically, cells were pretreated with differing amounts of the compound under test and released IL-1β determined as in Example 9, above. Measurements were made and IC50 values, presented in Table 2, below, were determined by fitting the data to a four parameter logistic equation using GraphPad Prism software (GraphPad Software, Inc). The equation may be expressed by the following formula:
Y=Bottom+(Top−Bottom)/(1+10̂((Log EC50−X)*HillSlope))
Where X is the logarithm of concentration, Y is the response and Y starts at Bottom and goes to Top with a sigmoid shape.

Row | Compound | inhibition at 0.1 µM [%]
1 | Cc1ccc(S(=O)(=O)N2CCc3c(ccc(Cl)c3NC(=O)Cc3ccc(C(F)(F)F)cc3)C2)c(C)c1 [Compound 3026] | 0 to 25
2 | Cc1cc(F)ccc1S(=O)(=O)N1CCc2c(ccc(Cl)c2NC(=O)Cc2ccc(C(F)(F)F)cc2)C1 [Compound 3010] | 0 to 25
3 | Cc1ccccc1S(=O)(=O)N1CCc2c(ccc(Cl)c2NC(=O)Cc2ccc(C(F)(F)F)cc2)C1 [Compound 3023] | 0 to 25
4 | O=C(Cc1ccc(C(F)(F)F)cc1)Nc1c(Cl)ccc2c1CCN(S(=O)(=O)c1cc(Cl)ccc1F)C2 [Compound 3018] | 0 to 25
5 | O=C(Cc1ccc(C(F)(F)F)cc1)Nc1c(Cl)ccc2c1CCN(S(=O)(=O)c1ccc(C(F)(F)F)cc1Cl)C2 [Compound 3021] | 0 to 25
6 | CN(C)CCC(=O)N1CCc2c(cccc2NC(=O)Cc2ccc(C(F)(F)F)c(F)c2)C1 [Compound 3035] | 0 to 25
7 | O=C(Cc1ccc(C(F)(F)F)cc1)Nc1c(Cl)ccc2c1CCN(S(=O)(=O)c1ccccc1OC(F)(F)F)C2 [Compound 3034] | 0 to 25
8 | O=C(Cc1ccc(C(F)(F)F)cc1)Nc1c(Cl)ccc2c1CCN(S(=O)(=O)c1cc(F)ccc1F)C2 [Compound 3008] | 0 to 25
9 | O=C(Cc1ccc(C(F)(F)F)cc1)Nc1c(Cl)ccc2c1CCN(S(=O)(=O)c1ccc(F)c(F)c1)C2 [Compound 3005] | 0 to 25
10 | O=C(Cc1ccc(C(F)(F)F)cc1)Nc1c(Cl)ccc2c1CCN(S(=O)(=O)c1ccccc1C(F)(F)F)C2 [Compound 3031] | 0 to 25
11 | O=C(Cc1ccc(C(F)(F)F)cc1)Nc1c(Cl)ccc2c1CCN(S(=O)(=O)c1cccc(Cl)c1)C2 [Compound 3012] | 0 to 25

same assay, conditions: Homo sapiens; 0.3 μM compound ("+" symbols); differentiated THP-1 cells, 250 uM BzATP; read-out: IL-1β% Inhib. @ 0.3 or 0.1 μM

Row | Compound | inhibition at 0.3 µM [%]
12 | C[C@H](NC(=O)OC(C)(C)C)C(=O)N1CCc2c(cccc2NC(=O)Cc2ccc(C(F)(F)F)c(F)c2)C1 [Compound 3048] | 0 to 25
13 | Cc1ccccc1C(=O)N1CCc2c(ccc(Cl)c2NC(=O)Cc2ccc(C(F)(F)F)c(F)c2)C1 [Compound 3112] | 0 to 25
14 | O=C(Cc1ccc(C(F)(F)F)c(F)c1)Nc1c(Cl)ccc2c1CCN(C(=O)CC1CCCC1)C2 [Compound 3103] | 51 to 75
15 | O=C(Cc1ccc(C(F)(F)F)c(F)c1)Nc1c(Cl)ccc2c1CCN(C(=O)c1ccc(Oc3ccccc3)nc1)C2 [Compound 3133] | 0 to 25
16 | O=C(Cc1cccc(C(F)(F)F)c1F)Nc1c(Cl)ccc2c1CCN(C(=O)c1ccc(C(F)(F)F)nc1)C2 [Compound 3196] | 0 to 25
17 | O=C(Cc1cccc(C(F)(F)F)c1F)Nc1c(Cl)ccc2c1CCN(C(=O)c1ccc(-c3ccccc3)cc1)C2 [Compound 3142] | 0 to 25
18 | O=C(Cc1cccc(C(F)(F)F)c1F)Nc1c(Cl)ccc2c1CCN(C(=O)COc1ccccc1)C2 [Compound 3152] | 0 to 25
19 | O=C(Cc1ccc(C(F)(F)F)c(F)c1)Nc1c(Cl)ccc2c1CCN(C(=O)C1COc3ccccc3O1)C2 (stereo not drawn) [Compound 3110] | 0 to 25
20 | CC(=O)N1CCc2c(ccc(Cl)c2NC(=O)Cc2cccc(C(F)(F)F)c2F)C1 [Compound 3136] | 0 to 25
21 | CC(=O)Nc1ccc(C(=O)N2CCc3c(ccc(Cl)c3NC(=O)Cc3ccc(C(F)(F)F)c(F)c3)C2)cc1 [Compound 3128] | 0 to 25
22 | O=C(Cc1cccc(C(F)(F)F)c1F)Nc1c(Cl)ccc2c1CCN(C(=O)c1ccc(F)cc1F)C2 [Compound 3175] | 0 to 25
23 | O=C(Cc1cccc(C(F)(F)F)c1F)Nc1c(Cl)ccc2c1CCN(C(=O)C1CCC1)C2 [Compound 3164] | 0 to 25
24 | O=C(Cc1ccc(C(F)(F)F)c(F)c1)Nc1c(Cl)ccc2c1CCN(C(=O)c1ccc(-c3ccccc3)cc1)C2 [Compound 3077] | 0 to 25
25 | O=C(Cc1cccc(C(F)(F)F)c1F)Nc1c(Cl)ccc2c1CCN(C(=O)c1cccc(Cl)c1)C2 [Compound 3156] | 0 to 25
26 | N[C@@H](Cc1ccccc1)C(=O)N1CCc2c(cccc2NC(=O)Cc2ccc(C(F)(F)F)c(F)c2)C1 [Compound 3056, N-[2-((S)-2-Amino-3-phenyl-propionyl)-1,2,3,4-tetrahydro-isoquinolin-5-yl]-2-(3-fluoro-4-trifluoromethyl-phenyl)-acetamide] | ≥ 76
27 | Cc1cccc(C(=O)N2CCc3c(ccc(Cl)c3NC(=O)Cc3ccc(C(F)(F)F)c(F)c3)C2)c1 [Compound 3074] | 26 to 50
28 | O=C(Cc1ccc(C(F)(F)F)c(F)c1)Nc1c(Cl)ccc2c1CCN(C(=O)CCc1ccccc1)C2 [Compound 3089] | 0 to 25
29 | O=C(Cc1ccc(C(F)(F)F)c(F)c1)Nc1cccc2c1CCN(C(=O)C1CC1)C2 [Compound 3041] | 0 to 25
30 | O=C(Cc1ccc(C(F)(F)F)c(F)c1)Nc1c(Cl)ccc2c1CCN(C(=O)CCC1CCCCC1)C2 [Compound 3130] | 51 to 75
31 | CN(C)c1ccc(C(=O)N2CCc3c(ccc(Cl)c3NC(=O)Cc3ccc(C(F)(F)F)c(F)c3)C2)cc1 [Compound 3096] | 26 to 50
32 | O=C(Cc1cccc(C(F)(F)F)c1F)Nc1c(Cl)ccc2c1CCN(C(=O)c1ccc(Cl)cc1Cl)C2 [Compound 3163] | 26 to 50
33 | CC(C)(C)C(=O)N1CCc2c(ccc(Cl)c2NC(=O)Cc2cccc(C(F)(F)F)c2F)C1 [Compound 3155] | 0 to 25
34 | O=C(Cc1cccc(C(F)(F)F)c1F)Nc1c(Cl)ccc2c1CCN(C(=O)/C=C/c1ccccc1)C2 [Compound 3182] | 0 to 25
35 | O=C(Cc1ccc(C(F)(F)F)c(F)c1)Nc1c(Cl)ccc2c1CCN(C(=O)c1cc(Cl)cc(Cl)c1)C2 [Compound 3131] | 0 to 25
36 | Cc1nn(-c2ccccc2)nc1C(=O)N1CCc2c(ccc(Cl)c2NC(=O)Cc2cccc(C(F)(F)F)c2F)C1 [Compound 3172] | 0 to 25
37 | O=C(Cc1cccc(C(F)(F)F)c1F)Nc1c(Cl)ccc2c1CCN(C(=O)c1ccccc1F)C2 [Compound 3178] | 0 to 25
38 | Cc1ccccc1C(=O)N1CCc2c(ccc(Cl)c2NC(=O)Cc2cccc(C(F)(F)F)c2F)C1 [Compound 3176] | 0 to 25
39 | O=C(Cc1ccc(C(F)(F)F)c(F)c1)Nc1c(Cl)ccc2c1CCN(C(=O)C1CC1)C2 [Compound 3102] | 0 to 25
40 | Cc1ccc(F)c(C(=O)N2CCc3c(ccc(Cl)c3NC(=O)Cc3ccc(C(F)(F)F)c(F)c3)C2)c1Cl [Compound 3107] | 0 to 25
41 | COc1ccc(C(=O)N2CCc3c(ccc(Cl)c3NC(=O)Cc3cccc(C(F)(F)F)c3F)C2)cc1 [Compound 3141] | 0 to 25

same assay, conditions: Homo sapiens; THP-1 cells, BzATP 250 uM, four parameter logistic fit

Row | IC50 [nM] | Compound
42 | 473 | C[C@H](NC(=O)OC(C)(C)C)C(=O)N1CCc2c(cccc2NC(=O)Cc2ccc(C(F)(F)F)c(F)c2)C1 [Compound 3048]
43 | 172 | O=C(Cc1ccc(C(F)(F)F)c(F)c1)Nc1c(Cl)ccc2c1CCN(C(=O)CC1CCCC1)C2 [Compound 3103]
44 | 201 | COc1ccc2c(c1NC(=O)Cc1ccc(C(F)(F)F)c(F)c1)CCN(C(=O)C(C)(C)C)C2 [Compound 3474, N-[2-(2,2-Dimethyl-propionyl)-6-methoxy-1,2,3,4-tetrahydro-isoquinolin-5-yl]-2-(3-fluoro-4-trifluoromethyl-phenyl)-acetamide]
45 | 243 | COc1ccc2c(c1NC(=O)Cc1ccc(C(F)(F)F)c(F)c1)CCN(C(=O)C1CC1)C2 [Compound 3475]
46 | 85.8 | CCC(=O)N1CCc2c(ccc(C)c2NC(=O)Cc2ccc(C(F)(F)F)c(F)c2)C1 [Compound 3203]
47 | 280 | COc1ccc2c(c1NC(=O)Cc1ccc(C(F)(F)F)c(F)c1)CCN(C(=O)C1(O)CCCCC1)C2 [Compound 3477, 2-(3-Fluoro-4-trifluoromethyl-phenyl)-N-[2-(1-hydroxy-cyclohexanecarbonyl)-6-methoxy-1,2,3,4-tetrahydro-isoquinolin-5-yl]-acetamide]
48 | 69.8 | Cc1ccc2c(c1NC(=O)Cc1ccc(C(F)(F)F)c(F)c1)CCN(C(=O)C1(O)CC1)C2 [Compound 3468]
49 | 56.3 | N[C@@H](Cc1ccccc1)C(=O)N1CCc2c(cccc2NC(=O)Cc2ccc(C(F)(F)F)c(F)c2)C1 [Compound 3056, N-[2-((S)-2-Amino-3-phenyl-propionyl)-1,2,3,4-tetrahydro-isoquinolin-5-yl]-2-(3-fluoro-4-trifluoromethyl-phenyl)-acetamide]
50 | 967 | CN(C)CCC(=O)N1CCc2c(cccc2NC(=O)Cc2ccc(C(F)(F)F)c(F)c2)C1 [Compound 3035]
51 | 495 | O=C(Cc1ccc(C(F)(F)F)c(F)c1)Nc1cccc2c1CCN(C(=O)C1CC1)C2 [Compound 3041]
52 | 78.5 | Cc1ccc2c(c1NC(=O)Cc1ccc(C(F)(F)F)c(F)c1)CCN(S(=O)(=O)c1c(F)cccc1F)C2 [Compound 3425]
53 | 175 | CC(=O)N1CCc2c(ccc(C)c2NC(=O)Cc2ccc(C(F)(F)F)c(F)c2)C1 [Compound 3201]
54 | 204 | Cc1ccc2c(c1NC(=O)Cc1ccc(C(F)(F)F)c(F)c1)CCN(C(=O)CCC1CCCC1)C2 [Compound 3207]
55 | 23.8 | Cc1ccc2c(c1NC(=O)Cc1ccc(C(F)(F)F)c(F)c1)CCN(C(=O)C1CCC1)C2 [Compound 3473]
56 | 48.6 | Cc1ccc2c(c1NC(=O)Cc1ccc(C(F)(F)F)c(F)c1)CCN(C(=O)C(C)C)C2 [Compound 3215]
57 | 165 | CC(C)(C)C(=O)N1CCc2c(ccc(C3CC3)c2NC(=O)Cc2ccc(C(F)(F)F)c(F)c2)C1 [Compound 3482]
